Experimental data from article doi:10.1101/2023.11.24.568596v1 (biorxiv, 2023).

Tests used:
Details in all cases: binder
CLK3 = CLK3 (Homo sapiens, UniProt P49761)
CaMK2b = CaMK2b (Homo sapiens, UniProt Q13554)
DAPK1 = DAPK1 (Homo sapiens, UniProt P53355)
DRAK2 = molecular target: T1, DRAK2 (Homo sapiens, UniProt O94768)
T1 sequence (O94768 1-372): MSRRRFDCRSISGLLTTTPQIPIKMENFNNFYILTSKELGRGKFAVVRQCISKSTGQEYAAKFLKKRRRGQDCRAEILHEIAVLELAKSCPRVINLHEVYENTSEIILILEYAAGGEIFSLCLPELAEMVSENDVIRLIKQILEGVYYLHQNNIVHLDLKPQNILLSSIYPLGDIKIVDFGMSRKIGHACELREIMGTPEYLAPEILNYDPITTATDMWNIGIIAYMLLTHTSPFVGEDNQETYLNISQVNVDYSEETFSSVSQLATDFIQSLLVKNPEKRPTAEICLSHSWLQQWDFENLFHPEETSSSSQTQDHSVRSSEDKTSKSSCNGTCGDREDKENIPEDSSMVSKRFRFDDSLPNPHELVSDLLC

GPRK5 = GPRK5 (Homo sapiens, UniProt P34947)
GSK3B = GSK3B (Homo sapiens, UniProt P49841)
MAP2K4 = molecular target: T2, MAP2K4 (Homo sapiens, UniProt P45985)
T2 sequence (P45985 1-399): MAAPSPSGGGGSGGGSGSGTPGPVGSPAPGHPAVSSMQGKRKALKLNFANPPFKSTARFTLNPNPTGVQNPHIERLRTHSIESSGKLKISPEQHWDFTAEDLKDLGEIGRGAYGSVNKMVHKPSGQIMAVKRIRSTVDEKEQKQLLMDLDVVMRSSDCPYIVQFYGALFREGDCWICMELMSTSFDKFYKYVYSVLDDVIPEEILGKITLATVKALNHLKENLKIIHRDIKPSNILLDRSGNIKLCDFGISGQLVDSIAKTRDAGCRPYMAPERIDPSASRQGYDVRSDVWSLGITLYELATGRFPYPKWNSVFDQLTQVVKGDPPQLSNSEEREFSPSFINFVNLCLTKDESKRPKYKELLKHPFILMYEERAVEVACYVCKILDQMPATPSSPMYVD

MRCKa = MRCKa (Homo sapiens, UniProt Q5VT25)
MSSK1 = MSSK1 (Homo sapiens, UniProt Q9UPE1)
NDR2 = NDR2 (Homo sapiens, UniProt Q9Y2H1)
NQO2A = molecular target: T3, NQO2A (Homo sapiens, UniProt P16083)
T3 sequence (P16083 1-231): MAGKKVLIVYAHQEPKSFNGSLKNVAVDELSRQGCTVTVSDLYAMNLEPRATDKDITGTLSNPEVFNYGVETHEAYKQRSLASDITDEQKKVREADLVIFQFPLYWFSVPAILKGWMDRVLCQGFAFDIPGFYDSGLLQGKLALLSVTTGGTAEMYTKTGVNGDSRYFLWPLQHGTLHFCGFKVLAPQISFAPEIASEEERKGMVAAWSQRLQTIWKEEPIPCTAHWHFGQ

SRPK1 = SRPK1 (Homo sapiens, UniProt Q96SB4)
TLK1 = molecular target: T4, TLK1 (Homo sapiens, UniProt Q9UKI8)
T4 sequence (Q9UKI8 1-766): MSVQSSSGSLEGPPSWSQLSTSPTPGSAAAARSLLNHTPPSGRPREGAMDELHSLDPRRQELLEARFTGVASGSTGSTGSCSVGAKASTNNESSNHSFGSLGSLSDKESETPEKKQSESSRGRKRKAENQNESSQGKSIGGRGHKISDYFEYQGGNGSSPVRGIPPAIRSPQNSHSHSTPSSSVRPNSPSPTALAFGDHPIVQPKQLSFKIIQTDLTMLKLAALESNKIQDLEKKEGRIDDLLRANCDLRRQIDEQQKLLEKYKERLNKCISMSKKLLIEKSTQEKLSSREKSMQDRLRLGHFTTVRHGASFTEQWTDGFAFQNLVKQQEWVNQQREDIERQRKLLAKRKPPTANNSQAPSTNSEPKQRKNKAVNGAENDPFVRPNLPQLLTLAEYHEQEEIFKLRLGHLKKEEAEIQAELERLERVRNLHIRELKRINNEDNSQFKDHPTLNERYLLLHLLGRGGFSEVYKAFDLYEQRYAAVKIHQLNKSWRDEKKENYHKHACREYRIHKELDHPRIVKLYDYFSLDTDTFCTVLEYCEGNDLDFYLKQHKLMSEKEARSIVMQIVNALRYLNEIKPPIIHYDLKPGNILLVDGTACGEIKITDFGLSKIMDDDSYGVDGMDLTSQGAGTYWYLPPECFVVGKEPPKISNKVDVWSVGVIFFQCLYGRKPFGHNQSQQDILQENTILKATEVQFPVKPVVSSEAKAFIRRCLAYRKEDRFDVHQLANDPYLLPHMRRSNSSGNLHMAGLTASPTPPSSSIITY

Chain of MSSK1 (Q9UPE1 whole entry): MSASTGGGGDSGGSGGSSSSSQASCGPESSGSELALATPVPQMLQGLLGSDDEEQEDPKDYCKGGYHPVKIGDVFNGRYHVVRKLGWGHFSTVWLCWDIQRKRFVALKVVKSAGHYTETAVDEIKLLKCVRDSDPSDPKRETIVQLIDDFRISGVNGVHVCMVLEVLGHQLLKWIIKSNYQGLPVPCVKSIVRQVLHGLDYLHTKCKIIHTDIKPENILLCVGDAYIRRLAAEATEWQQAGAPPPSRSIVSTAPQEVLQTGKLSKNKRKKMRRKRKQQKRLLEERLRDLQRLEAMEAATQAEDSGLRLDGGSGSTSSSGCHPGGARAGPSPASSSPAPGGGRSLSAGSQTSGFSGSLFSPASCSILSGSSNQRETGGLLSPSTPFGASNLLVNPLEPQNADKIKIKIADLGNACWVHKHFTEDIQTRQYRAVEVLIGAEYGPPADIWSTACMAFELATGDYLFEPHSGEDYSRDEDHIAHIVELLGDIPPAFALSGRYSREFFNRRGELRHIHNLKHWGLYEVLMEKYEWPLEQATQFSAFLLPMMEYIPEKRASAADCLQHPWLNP
Chain of NDR2 (Q9Y2H1 whole entry): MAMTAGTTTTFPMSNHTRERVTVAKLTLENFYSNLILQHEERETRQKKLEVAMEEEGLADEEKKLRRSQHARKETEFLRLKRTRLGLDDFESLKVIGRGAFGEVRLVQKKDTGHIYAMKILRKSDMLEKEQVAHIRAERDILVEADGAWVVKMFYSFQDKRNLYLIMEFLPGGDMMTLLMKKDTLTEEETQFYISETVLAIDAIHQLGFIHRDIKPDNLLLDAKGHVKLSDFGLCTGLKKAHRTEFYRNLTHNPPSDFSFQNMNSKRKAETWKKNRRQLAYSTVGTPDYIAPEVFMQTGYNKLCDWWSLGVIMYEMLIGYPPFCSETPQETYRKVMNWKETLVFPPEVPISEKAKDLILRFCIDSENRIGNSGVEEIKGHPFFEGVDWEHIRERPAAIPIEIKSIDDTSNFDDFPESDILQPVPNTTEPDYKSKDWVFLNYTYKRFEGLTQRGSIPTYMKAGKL
Chain of CLK3 (P49761 whole entry): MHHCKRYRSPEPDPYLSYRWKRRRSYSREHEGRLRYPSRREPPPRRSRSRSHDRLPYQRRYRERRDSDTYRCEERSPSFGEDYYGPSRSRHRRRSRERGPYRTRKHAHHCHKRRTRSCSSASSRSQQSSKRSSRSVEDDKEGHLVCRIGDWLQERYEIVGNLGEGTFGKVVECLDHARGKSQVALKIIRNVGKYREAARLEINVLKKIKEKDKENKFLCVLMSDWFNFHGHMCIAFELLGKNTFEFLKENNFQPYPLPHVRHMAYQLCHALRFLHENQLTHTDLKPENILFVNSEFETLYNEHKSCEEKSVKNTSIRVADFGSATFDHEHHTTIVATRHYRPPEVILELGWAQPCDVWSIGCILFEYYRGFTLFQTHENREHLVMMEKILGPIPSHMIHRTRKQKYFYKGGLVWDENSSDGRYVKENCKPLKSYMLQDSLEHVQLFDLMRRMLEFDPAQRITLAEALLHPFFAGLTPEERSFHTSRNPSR
Chain of MRCKa (Q5VT25 whole entry): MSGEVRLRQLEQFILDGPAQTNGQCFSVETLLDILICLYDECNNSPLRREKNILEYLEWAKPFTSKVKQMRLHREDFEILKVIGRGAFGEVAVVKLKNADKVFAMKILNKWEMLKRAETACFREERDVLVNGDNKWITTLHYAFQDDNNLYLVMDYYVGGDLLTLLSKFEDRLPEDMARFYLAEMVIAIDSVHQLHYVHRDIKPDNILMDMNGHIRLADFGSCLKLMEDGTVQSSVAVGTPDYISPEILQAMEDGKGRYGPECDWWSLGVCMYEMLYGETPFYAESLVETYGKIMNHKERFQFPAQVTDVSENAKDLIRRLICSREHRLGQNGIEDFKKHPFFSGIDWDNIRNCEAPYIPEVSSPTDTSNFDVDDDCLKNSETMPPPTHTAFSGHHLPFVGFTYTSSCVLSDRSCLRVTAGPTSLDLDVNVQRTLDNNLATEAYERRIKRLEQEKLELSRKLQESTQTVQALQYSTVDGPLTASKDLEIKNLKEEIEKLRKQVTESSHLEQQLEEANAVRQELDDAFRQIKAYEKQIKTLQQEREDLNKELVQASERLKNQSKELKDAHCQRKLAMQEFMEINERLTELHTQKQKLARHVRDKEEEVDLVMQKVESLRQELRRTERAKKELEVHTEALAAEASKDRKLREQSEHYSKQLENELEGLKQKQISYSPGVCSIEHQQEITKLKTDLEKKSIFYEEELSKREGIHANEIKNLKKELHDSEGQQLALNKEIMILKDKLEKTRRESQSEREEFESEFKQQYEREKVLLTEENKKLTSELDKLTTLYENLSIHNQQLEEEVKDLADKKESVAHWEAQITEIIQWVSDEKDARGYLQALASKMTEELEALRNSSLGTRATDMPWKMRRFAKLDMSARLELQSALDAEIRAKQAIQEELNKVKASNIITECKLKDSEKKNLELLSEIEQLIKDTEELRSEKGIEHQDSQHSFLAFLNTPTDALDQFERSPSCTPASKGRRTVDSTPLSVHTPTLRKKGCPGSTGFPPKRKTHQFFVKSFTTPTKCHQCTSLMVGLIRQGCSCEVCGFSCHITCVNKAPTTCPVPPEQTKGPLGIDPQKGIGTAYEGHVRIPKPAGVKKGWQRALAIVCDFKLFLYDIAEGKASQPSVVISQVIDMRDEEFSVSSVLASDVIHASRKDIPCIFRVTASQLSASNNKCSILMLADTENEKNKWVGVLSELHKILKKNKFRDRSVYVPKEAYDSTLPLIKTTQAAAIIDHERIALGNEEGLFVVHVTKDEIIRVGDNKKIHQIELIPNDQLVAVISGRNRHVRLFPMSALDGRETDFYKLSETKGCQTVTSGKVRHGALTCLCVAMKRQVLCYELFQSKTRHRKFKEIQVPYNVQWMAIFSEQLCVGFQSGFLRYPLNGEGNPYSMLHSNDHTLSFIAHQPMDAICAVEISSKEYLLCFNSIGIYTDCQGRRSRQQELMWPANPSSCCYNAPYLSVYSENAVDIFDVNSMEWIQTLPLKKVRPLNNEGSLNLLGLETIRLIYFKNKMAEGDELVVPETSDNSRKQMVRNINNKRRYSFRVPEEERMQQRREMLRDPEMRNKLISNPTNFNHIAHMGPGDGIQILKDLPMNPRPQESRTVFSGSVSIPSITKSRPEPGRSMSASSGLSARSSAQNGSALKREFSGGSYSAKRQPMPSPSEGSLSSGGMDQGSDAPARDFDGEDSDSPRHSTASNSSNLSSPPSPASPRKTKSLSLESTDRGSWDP
Chain of DAPK1 (P53355 whole entry): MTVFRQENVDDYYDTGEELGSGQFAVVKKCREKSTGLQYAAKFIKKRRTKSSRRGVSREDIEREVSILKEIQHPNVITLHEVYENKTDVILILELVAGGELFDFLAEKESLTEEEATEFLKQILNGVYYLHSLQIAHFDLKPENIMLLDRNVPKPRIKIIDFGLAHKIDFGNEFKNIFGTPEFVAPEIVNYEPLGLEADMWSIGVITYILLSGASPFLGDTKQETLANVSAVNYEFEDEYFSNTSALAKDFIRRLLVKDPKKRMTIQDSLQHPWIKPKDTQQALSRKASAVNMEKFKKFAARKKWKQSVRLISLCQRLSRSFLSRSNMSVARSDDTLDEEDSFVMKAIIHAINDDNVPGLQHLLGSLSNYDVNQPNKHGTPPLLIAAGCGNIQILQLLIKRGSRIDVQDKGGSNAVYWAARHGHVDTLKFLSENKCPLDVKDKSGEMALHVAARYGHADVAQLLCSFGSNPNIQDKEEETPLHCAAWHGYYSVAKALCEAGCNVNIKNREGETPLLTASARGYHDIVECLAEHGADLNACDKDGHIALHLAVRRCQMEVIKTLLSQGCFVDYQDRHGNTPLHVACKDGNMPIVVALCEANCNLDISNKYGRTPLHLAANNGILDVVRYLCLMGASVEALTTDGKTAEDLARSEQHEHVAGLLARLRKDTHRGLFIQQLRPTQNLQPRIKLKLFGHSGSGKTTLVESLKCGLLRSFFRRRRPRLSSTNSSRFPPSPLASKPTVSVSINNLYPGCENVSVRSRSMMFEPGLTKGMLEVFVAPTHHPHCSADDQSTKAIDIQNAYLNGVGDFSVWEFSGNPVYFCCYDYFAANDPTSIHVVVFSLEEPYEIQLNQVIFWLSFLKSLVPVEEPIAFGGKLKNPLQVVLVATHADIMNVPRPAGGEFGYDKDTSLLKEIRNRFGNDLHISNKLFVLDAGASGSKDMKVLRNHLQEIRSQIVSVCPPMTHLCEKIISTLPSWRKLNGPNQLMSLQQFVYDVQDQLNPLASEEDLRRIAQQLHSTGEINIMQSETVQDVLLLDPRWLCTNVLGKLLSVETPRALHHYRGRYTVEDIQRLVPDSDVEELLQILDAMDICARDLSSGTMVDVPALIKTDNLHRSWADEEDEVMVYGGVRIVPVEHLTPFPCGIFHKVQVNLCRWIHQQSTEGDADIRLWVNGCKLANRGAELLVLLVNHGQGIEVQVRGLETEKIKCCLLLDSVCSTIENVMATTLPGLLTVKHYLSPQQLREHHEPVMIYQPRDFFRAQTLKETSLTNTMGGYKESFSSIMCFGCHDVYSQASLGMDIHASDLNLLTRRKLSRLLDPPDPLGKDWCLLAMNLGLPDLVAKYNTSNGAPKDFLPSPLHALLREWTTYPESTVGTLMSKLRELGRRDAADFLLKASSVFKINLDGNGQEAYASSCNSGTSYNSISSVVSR
Chain of GSK3B (P49841 whole entry): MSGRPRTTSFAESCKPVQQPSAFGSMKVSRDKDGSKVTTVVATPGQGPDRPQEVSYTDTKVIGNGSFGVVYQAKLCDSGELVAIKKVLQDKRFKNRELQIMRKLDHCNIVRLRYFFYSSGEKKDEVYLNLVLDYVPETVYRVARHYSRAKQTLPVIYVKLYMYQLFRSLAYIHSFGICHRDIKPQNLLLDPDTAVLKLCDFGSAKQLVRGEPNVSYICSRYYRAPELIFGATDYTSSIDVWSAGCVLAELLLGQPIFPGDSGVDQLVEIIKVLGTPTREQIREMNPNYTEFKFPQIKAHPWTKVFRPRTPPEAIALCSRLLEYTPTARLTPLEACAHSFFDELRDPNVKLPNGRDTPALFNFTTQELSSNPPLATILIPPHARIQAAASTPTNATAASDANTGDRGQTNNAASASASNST

Cc1cccc(-c2ccc(-c3cc4cnc(Nc5ccc(F)c(CO)c5)nc4n(CCCCN)c3=O)c(Cl)c2)n1 [compound 33, 8-(4-Aminobutyl)-6-(2-chloro-4-(6-methylpyridin-2-yl)phenyl)-2-((4-fluoro-3-(hydroxymethyl)phenyl)amino)pyrido[2,3-d]pyrimidin-7(8H)-one]
dTm 33 (CLK3): -0.5 °C
dTm 33 (CaMK2b): -0.2 °C
dTm 33 (DAPK1): -1.1 °C
dTm 33 (DRAK2): 10.5 °C
dTm 33 (GPRK5): -0.8 °C
dTm 33 (GSK3B): 2.3 °C
dTm 33 (MAP2K4): 10.0 °C
dTm 33 (MRCKa): 1.9 °C
dTm 33 (MSSK1): -0.4 °C
dTm 33 (NDR2): 10.4 °C
dTm 33 (NQO2A): 0.9 °C
dTm 33 (SRPK1): -0.2 °C
dTm 33 (TLK1): -0.8 °C

COc1ccc(O)c(Nc2ncc3cc(-c4ccc(-c5cccc(C)n5)cc4Cl)c(=O)n(CCCCN)c3n2)c1 [compound 34, 8-(4-Aminobutyl)-6-(2-chloro-4-(6-methylpyridin-2-yl)phenyl)-2-((2-hydroxy-5-methoxy-phenyl)amino)pyrido[2,3-d]pyrimidin-7(8H)-one]
dTm 34 (CLK3): -1.0 °C
dTm 34 (CaMK2b): -0.8 °C
dTm 34 (DAPK1): -0.8 °C
dTm 34 (DRAK2): 7.5 °C
dTm 34 (GPRK5): -0.7 °C
dTm 34 (GSK3B): 2.0 °C
dTm 34 (MAP2K4): 8.0 °C
dTm 34 (MRCKa): 0.8 °C
dTm 34 (MSSK1): 0.4 °C
dTm 34 (NDR2): 6.0 °C
dTm 34 (NQO2A): -1.3 °C
dTm 34 (SRPK1): 0.1 °C
dTm 34 (TLK1): -1.1 °C

COc1cc(N2CCOCC2)ccc1Nc1ncc2cc(-c3ccc(-c4cccc(C)n4)cc3Cl)c(=O)n(CCCCN)c2n1 [compound 35, 8-(4-Aminobutyl)-6-(2-chloro-4-(6-methylpyridin-2-yl)phenyl)-2-((2-methoxy-4-morpholino-phenyl)amino)pyrido[2,3-d]pyrimidin-7(8H)-one]
dTm 35 (CLK3): -1.3 °C
dTm 35 (CaMK2b): -1.4 °C
dTm 35 (DAPK1): -2.1 °C
dTm 35 (DRAK2): 7.0 °C
dTm 35 (GPRK5): -2.1 °C
dTm 35 (GSK3B): -0.3 °C
dTm 35 (MAP2K4): 7.6 °C
dTm 35 (MRCKa): -2.1 °C
dTm 35 (MSSK1): -0.2 °C
dTm 35 (NDR2): 6.5 °C
dTm 35 (NQO2A): -2.4 °C
dTm 35 (SRPK1): -0.5 °C
dTm 35 (TLK1): -2.5 °C

COc1cc(N2CCN(C)CC2)ccc1Nc1ncc2cc(-c3ccc(-c4cccc(C)n4)cc3Cl)c(=O)n(CCCCN)c2n1 [compound 36, 8-(4-Aminobutyl)-6-(2-chloro-4-(6-methylpyridin-2-yl)phenyl)-2-((2-methoxy-4-(4-methylpiperazin-1-yl)phenyl)amino)pyrido[2,3-d]pyrimidin-7(8H)-one]
dTm 36 (CLK3): -0.7 °C
dTm 36 (CaMK2b): -0.6 °C
dTm 36 (DAPK1): -1.2 °C
dTm 36 (DRAK2): 4.3 °C
dTm 36 (GPRK5): -1.3 °C
dTm 36 (GSK3B): 0.2 °C
dTm 36 (MAP2K4): 6.9 °C
dTm 36 (MRCKa): -0.9 °C
dTm 36 (MSSK1): 0.0 °C
dTm 36 (NDR2): 5.2 °C
dTm 36 (NQO2A): -1.0 °C
dTm 36 (SRPK1): 0.0 °C
dTm 36 (TLK1): -1.9 °C
